We go through eleven molecules from ChEMBL document CHEMBL4130407, “A novel class of thiosemicarbazones show multi-functional activity for the treatment of Alzheimer's disease” (Eur J Med Chem, 2017).

pIC50: −log10 of the molar value. Activity calls are given as the source filed them. No cut-off for these calls is given here.

Assay [1] relates to SK-N-MC. Put plainly: cells. Type of assay: ADME, cell-based. As to conditions: Homo sapiens, 72 h.
Description: Antiproliferative activity against human SK-N-MC cells after 72 hrs by MTT assay
The target in a further assay is Acetylcholinesterase (Electrophorus electricus, UniProt O42275). Put plainly: Inhibition of electric eel AChE using acetylthiocholine iodide as substrate preincubated for 15 mins followed by substrate addition measured for 5 mins by UV spectrophotometric analysis.
Acetylcholinesterase, sequence (O42275 whole entry): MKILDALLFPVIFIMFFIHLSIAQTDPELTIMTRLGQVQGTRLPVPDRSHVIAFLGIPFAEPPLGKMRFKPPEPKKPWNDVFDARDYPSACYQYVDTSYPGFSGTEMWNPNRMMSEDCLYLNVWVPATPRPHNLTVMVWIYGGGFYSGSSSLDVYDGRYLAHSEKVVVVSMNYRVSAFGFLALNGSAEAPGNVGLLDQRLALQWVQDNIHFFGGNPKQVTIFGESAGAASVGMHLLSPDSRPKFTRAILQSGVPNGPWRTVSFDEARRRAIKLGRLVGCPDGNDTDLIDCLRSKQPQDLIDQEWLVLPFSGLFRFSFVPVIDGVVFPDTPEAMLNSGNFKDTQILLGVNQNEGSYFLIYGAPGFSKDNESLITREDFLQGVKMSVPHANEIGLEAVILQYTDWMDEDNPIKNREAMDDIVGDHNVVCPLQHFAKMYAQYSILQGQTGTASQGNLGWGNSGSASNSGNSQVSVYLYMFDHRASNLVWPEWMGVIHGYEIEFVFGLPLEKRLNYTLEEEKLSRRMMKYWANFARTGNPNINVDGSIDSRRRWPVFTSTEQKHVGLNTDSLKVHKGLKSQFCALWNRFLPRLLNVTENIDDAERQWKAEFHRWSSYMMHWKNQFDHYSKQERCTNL
Assay [2] relates to SK-N-MC. Put plainly: Induction of autophagy in human SK-N-MC cells assessed as decrease in p62 level at 25 uM after 24 hrs by Western blot analysis. The class given is functional, cell-based.
Assay [3] concerns SK-N-MC. Put plainly: Induction of autophagy in human SK-N-MC cells assessed as increase in LC3 accumulation at 25 uM after 24 hrs in presence of autophagy inhibitor Baf1 by Western blot analysis. Type of assay: functional, cell-based. (A western blot detects proteins with antibodies after separation by electrophoresis.)
The nature of assay [4]: Metal chelation activity assessed as 1:1 compound to Cu2+L complex formation in DMF:H2O (7:3) solution by EPR spectrscopy.
A short description of assay [5]: Metal chelation activity assessed as 1:1 compound to Cu2+L complex formation in DMF:H2O (7:3) solution by cyclic voltametry.
Assay [6] in a line: Metal chelation activity assessed as 1:2 Fe3+:L complex formation in DMF:H2O (7:3) solution by EPR spectrscopy.
The nature of assay [7]: Metal chelation activity assessed as 1:2 Fe3+:L complex formation in DMF:H2O (7:3) solution by cyclic voltametry.
Assay [8] relates to SK-N-MC. Put plainly: Binding affinity to 59Fe2+ in human SK-N-MC cells labeled with 59Fe2-transferrin assessed as Fe release at 25 uM after 3 hrs by gamma scintillation counting method relative to DFO. The class given is cell-based.
Assay [9] deals with SK-N-MC. As to the kind of experiment: cells. The settings on record: Homo sapiens, read-out: Activity.
Description: (§1) Neuroprotective activity against H2O2-induced cell death in human SK-N-MC cells assessed as cell viability at 10 uM preincubated for 2 hrs followed by H2O2 addition and measured after 24 hrs by MTT assay
The subject of assay [10] is SK-N-MC. As to the kind of experiment: Induction of autophagy in human SK-N-MC cells assessed as increase in LC3 accumulation at 25 uM after 24 hrs in absence of autophagy inhibitor Baf1 by Western blot analysis. The class given is functional, cell-based.
Assay [11] is described as follows: Metal chelation activity assessed as 1:1 compound to Cu2+L2 complex formation in DMF:H2O (7:3) solution by EPR spectrscopy.
Assay [12] concerns SK-N-MC. The settings on record: Homo sapiens, 10 uM.
Description: as §1
Assay [13] is described as follows: Metal chelation activity assessed as 1:2 Fe2+:L complex formation in DMF:H2O (7:3) solution by EPR spectrscopy.

For `S=C(N/N=C/c1ccccn1)NC1CCN(Cc2ccccc2)CC1`, the pIC50 (commonly the negative decadic logarithm of the IC50, by convention in mol/L) was 5.37 in the assay with SK-N-MC [1] and 4.65 to 5.99 on Acetylcholinesterase. The result in the assay with SK-N-MC [2] was inactive. The outcome (in the assay on SK-N-MC [3]; in [4]; in [5]; in [6]; in assay [7]) was Active. Further, the Activity in the assay with SK-N-MC [8] came to 18%. Also, in the assay on SK-N-MC [9], the viability at 10 µM lay in the range of 66 to 87%.
Consider `COc1cc2c(cc1OC)C(=O)C(CC1CCN(Cc3ccccc3)CC1)C2` (stereo unspecified) [DONEPEZIL], for which the pIC50 with SK-N-MC [1] is < 4.00. For the same molecule, the viability at 10 µM with SK-N-MC [9] came out at 74%.
With `S=C(N/N=C/c1ccc2ccccc2n1)NC1CCN(Cc2ccccc2)CC1`, the pIC50 in the assay with SK-N-MC [1] is 4.75; on Acetylcholinesterase, 4.65 to 5.99. For the same molecule, the outcome with SK-N-MC [2] and with SK-N-MC [3] was inactive. Further, the result in [4], in assay [5], in [6] and in assay [7] was Active. In addition, the viability at 10 µM in the assay with SK-N-MC [9] was in the range of 66 to 87%.
As for `Oc1cccc(/C=N/NC(=S)NC2CCN(Cc3ccccc3)CC2)c1O`, the pIC50 in the assay with SK-N-MC [1] is 4.77; against Acetylcholinesterase it was 5.99. Also, the outcome in the assay with SK-N-MC [2] and in the assay with SK-N-MC [3] was inactive. Further, the outcome (in assay [4]; in the assay on SK-N-MC [10]) was Active. The Activity in the assay on SK-N-MC [8] stood at 29%. Moreover, the viability at 10 µM in the assay with SK-N-MC [9] fell in the range of 66 to 87%.
Molecule `CN(C)C(=S)NN=C(c1ccccn1)c1ccccn1` gave a pIC50 in the assay with SK-N-MC [1] of 7.89. The outcome with SK-N-MC [2] and in the assay with SK-N-MC [3] was Active.
Consider `Oc1cccc2ccc(/C=N/NC(=S)NC3CCN(Cc4ccccc4)CC3)nc12`, for which the values for the pIC50 in the assay with SK-N-MC [1] and on Acetylcholinesterase were 4.44 and 4.65 to 5.99, respectively. Besides, the result in the assay with SK-N-MC [2] was inactive. Moreover, the result (in the assay with SK-N-MC [3]; in assay [4]; in [5]; in assay [7]; in the assay with SK-N-MC [10]) was Active. Besides, the Activity in the assay with SK-N-MC [8] was found to be 17%. The viability at 10 µM with SK-N-MC [9] lay within 66 to 87%.
For `Oc1ccc2ccccc2c1/C=N/NC(=S)NC1CCN(Cc2ccccc2)CC1`, the pIC50 in the assay with SK-N-MC [1] was 5.05; at Acetylcholinesterase, 5.91. Besides, the result (in the assay on SK-N-MC [2]; in assay [4]; in assay [5]; in assay [6]; in assay [7]; in the assay on SK-N-MC [10]) was Active. Further, the outcome (with SK-N-MC [3]; in [11]; in the assay on SK-N-MC [12]) was inactive. Moreover, the Activity in the assay with SK-N-MC [8] is 16%.
Turning to `CC(=O)N(O)CCCCCNC(=O)CCC(=O)N(O)CCCCCNC(=O)CCC(=O)N(O)CCCCCN` [DEFEROXAMINE], the pIC50 with SK-N-MC [1] is 4.77. Moreover, the viability at 10 µM with SK-N-MC [9] is 89%.
As for `Oc1ccc(/C=N/NC(=S)NC2CCN(Cc3ccccc3)CC2)c(O)c1O`, the pIC50 in the assay with SK-N-MC [1] was 4.10; at Acetylcholinesterase it was 4.65 to 5.99. Also, the outcome in the assay with SK-N-MC [2] was inactive. Further, the result (in the assay on SK-N-MC [3]; in [4]; in [13]) was Active. Also, the Activity with SK-N-MC [8] came out at 14%. For the same molecule, in the assay on SK-N-MC [9], the viability at 10 µM is 66 to 87%.
`Cc1ncc(CO)c(/C=N/NC(=S)NC2CCN(Cc3ccccc3)CC2)c1O`: the results for the pIC50 in the assay with SK-N-MC [1] and on Acetylcholinesterase were < 4.00 and 5.31, respectively. The outcome (with SK-N-MC [2]; in [11]) was inactive. Further, the outcome (in the assay on SK-N-MC [3]; in assay [4]; in [5]; in [6]; in assay [7]) was Active. Also, the Activity in the assay with SK-N-MC [8] is 31%. The viability at 10 µM with SK-N-MC [9] was 66 to 87%.
For the molecule `Oc1ccccc1/C=N/NC(=S)NC1CCN(Cc2ccccc2)CC1`, the pIC50 with SK-N-MC [1] was 4.46; at Acetylcholinesterase, 4.65 to 5.99. Also, the result (in the assay with SK-N-MC [2]; in [4]; in assay [5]; in [6]; in assay [7]) was Active. The result (in the assay with SK-N-MC [3]; in [11]) was inactive. The Activity in the assay with SK-N-MC [8] is 28%. Further, the viability at 10 µM in the assay on SK-N-MC [9] lay within 66 to 87%.
